Tests used:
mTORC1 (mTOR/GbL/Raptor) = mTORC1 (mTOR/GbL/Raptor) (Homo sapiens, UniProt P42345); test: mTOR/GbL/Raptor (mTORC1) ELISA Assay; format: biochemical; conditions: 0.2 nM mTORC1, 10 μM ATP, 50 nM NHis-tagged 4E-BP1; phosphorylation of 4E-BP1; read-out: IC50
Procedure, shortened: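 mTORC1 (0.2 nM) phosphorylated NHis-tagged 4E-BP1 (50 nM) with 10 μM ATP in 20 mM Hepes pH 7.2, 10 mM MnCl2, for 120 min at ambient temperature. Product was captured on Ni-chelate plates and detected with anti-phospho-4E-BP1 plus HRP secondary antibody by chemiluminescence.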

PI3Kα = PI3Kα (Homo sapiens, UniProt P42336); test: PI3K Biochemical Assays (ATP consumption, luciferase-luciferin chemiluminescence); conditions: PI3Kα 1.5 nM, ATP 1 μM, PIP2 10 μM; percent of ATP consumed
Chain of PI3Kα (P42336 whole entry): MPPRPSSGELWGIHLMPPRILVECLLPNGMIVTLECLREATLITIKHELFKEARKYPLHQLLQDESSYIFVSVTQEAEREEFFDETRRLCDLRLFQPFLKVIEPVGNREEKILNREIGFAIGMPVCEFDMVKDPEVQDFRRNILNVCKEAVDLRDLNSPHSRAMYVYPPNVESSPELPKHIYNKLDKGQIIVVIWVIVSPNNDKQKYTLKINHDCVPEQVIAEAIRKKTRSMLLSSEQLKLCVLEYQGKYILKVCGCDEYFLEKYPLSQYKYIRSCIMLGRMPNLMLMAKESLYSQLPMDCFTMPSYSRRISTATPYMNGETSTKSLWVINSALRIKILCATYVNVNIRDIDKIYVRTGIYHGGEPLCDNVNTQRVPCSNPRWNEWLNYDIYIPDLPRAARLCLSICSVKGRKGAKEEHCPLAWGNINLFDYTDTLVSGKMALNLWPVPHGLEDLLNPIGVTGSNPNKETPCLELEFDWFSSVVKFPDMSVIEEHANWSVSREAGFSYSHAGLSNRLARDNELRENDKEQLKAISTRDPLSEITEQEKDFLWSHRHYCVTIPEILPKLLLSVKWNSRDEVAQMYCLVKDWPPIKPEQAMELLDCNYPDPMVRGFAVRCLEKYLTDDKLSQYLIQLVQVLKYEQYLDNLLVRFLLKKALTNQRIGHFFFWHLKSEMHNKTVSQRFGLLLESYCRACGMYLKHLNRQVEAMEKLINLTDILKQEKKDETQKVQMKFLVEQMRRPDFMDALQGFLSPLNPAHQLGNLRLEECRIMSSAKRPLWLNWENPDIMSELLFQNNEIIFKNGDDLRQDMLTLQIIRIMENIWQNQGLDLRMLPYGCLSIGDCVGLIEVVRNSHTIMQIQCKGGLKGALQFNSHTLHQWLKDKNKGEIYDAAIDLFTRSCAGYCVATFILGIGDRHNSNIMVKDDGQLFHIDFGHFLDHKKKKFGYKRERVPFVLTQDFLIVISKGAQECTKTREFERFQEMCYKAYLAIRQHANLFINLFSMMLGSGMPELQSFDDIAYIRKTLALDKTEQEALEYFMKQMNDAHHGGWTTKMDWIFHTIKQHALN
Chain of PI3Kα (P27986 whole entry partner): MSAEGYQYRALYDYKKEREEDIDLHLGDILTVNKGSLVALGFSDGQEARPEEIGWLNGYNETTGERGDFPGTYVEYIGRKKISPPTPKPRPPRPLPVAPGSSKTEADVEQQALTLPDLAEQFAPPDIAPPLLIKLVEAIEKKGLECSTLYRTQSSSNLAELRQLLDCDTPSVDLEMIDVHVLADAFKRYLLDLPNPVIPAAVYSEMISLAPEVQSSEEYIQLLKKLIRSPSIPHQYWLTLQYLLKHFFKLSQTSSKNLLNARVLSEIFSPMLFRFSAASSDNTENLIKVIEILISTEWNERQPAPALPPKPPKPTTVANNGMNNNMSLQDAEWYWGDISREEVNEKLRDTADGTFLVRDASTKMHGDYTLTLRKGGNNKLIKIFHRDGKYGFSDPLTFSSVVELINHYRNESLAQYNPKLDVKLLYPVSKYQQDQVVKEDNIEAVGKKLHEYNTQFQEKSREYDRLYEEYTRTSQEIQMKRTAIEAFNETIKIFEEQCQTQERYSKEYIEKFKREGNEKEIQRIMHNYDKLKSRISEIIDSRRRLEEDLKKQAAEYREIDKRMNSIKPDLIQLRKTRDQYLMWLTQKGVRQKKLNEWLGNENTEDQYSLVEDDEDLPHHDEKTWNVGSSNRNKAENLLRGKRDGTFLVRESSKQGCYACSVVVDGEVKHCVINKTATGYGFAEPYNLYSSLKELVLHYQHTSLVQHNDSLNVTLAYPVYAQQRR
Procedure, shortened: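 Kinase activity read as percent ATP consumed via luciferase-luciferin chemiluminescence. 1.5 nM enzyme, 1 μM ATP, 10 μM PIP2 in 50 mM Tris pH 7.5, 1 mM EGTA, 10 mM MgCl2, 1 mM DTT, 0.03% CHAPS; ~2 h at ambient temperature, ATP consumption kept to 40-60%.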

| Compound | IC50 (mTORC1 (mTOR/GbL/Raptor)) [nM] | IC50 (PI3Kα) [nM] |
| --- | --- | --- |
| Cc1nc2ccc(-c3ccc4c(c3)CN(C(=O)N(C)CCc3ccccc3)CCO4)cc2[nH]1 [Compound 93, N-methyl-7-(2-methyl-1H-benzimidazol-6-yl)-N-(2-phenylethyl)-2,3-dihydro-1,4-benzoxazepine-4(5H)-carboxamide] | 700 to 2600 | 1000 to 3000 |
| Cc1nc2ccc(-c3ccc4c(c3)CN(C(=O)N3CCCC3Cc3ccccc3)CCO4)cc2[nH]1 (centres unmarked) [Compound 94, 7-(2-methyl-1H-benzimidazol-6-yl)-4-{[2-(phenylmethyl)pyrrolidin-1-yl]carbonyl}-2,3,4,5-tetrahydro-1,4-benzoxazepine] | 50 to 250 | 1000 to 3000 |
| Cc1nc2ccc(-c3ccc4c(c3)CN(C(=O)N3CCCC3c3ccccc3)CCO4)cc2[nH]1 (centres unmarked) [Compound 95, 7-(2-methyl-1H-benzimidazol-6-yl)-4-[(2-phenylpyrrolidin-1-yl)carbonyl]-2,3,4,5-tetrahydro-1,4-benzoxazepine] | 50 to 250 | 500 to 1000 |
| Cc1nc2ccc(-c3ccc4c(c3)CN(C(=O)N3CCCCC3c3ccccc3)CCO4)cc2[nH]1 (centres unmarked) [Compound 96, 7-(2-methyl-1H-benzimidazol-6-yl)-4-[(2-phenylpiperidin-1-yl)carbonyl]-2,3,4,5-tetrahydro-1,4-benzoxazepine] | ≤ 50 | 75 to 200 |
| Cc1nc2ccc(-c3ccc4c(c3)CN(C(=O)N3CCCC(c5ccccc5)C3)CCO4)cc2[nH]1 (centres unmarked) [Compound 97, 7-(2-methyl-1H-benzimidazol-6-yl)-4-[(3-phenylpiperidin-1-yl)carbonyl]-2,3,4,5-tetrahydro-1,4-benzoxazepine] | 250 to 700 | 500 to 1000 |
| Cc1nc2ccc(-c3ccc4c(c3)CN(C(=O)N3CCC(c5ccccc5)C3)CCO4)cc2[nH]1 (centres unmarked) [Compound 98, 7-(2-methyl-1H-benzimidazol-6-yl)-4-[(3-phenylpyrrolidin-1-yl)carbonyl]-2,3,4,5-tetrahydro-1,4-benzoxazepine] | 50 to 250 | 500 to 1000 |
| Cc1nc2ccc(-c3ccc4c(c3)CN(C(=O)N3CCCC3C)CCO4)cc2[nH]1 (centres unmarked) [Compound 99, 7-(2-methyl-1H-benzimidazol-6-yl)-4-[(2-methylpyrrolidin-1-yl)carbonyl]-2,3,4,5-tetrahydro-1,4-benzoxazepine] | 700 to 2600 | 500 to 1000 |
| Cc1nc2ccc(-c3ccc4c(c3)CN(C(=O)N3CCC(Cc5ccccc5)C3)CCO4)cc2[nH]1 (centres unmarked) [Compound 100, 7-(2-methyl-1H-benzimidazol-6-yl)-4-{[3-(phenylmethyl)pyrrolidin-1-yl]carbonyl}-2,3,4,5-tetrahydro-1,4-benzoxazepine] | 250 to 700 | 500 to 1000 |
| Cc1nc2ccc(-c3ccc4c(c3)CN(C(=O)N3CCC(S(C)(=O)=O)CC3)CCO4)cc2[nH]1 [Compound 102, 7-(2-methyl-1H-benzimidazol-6-yl)-4-{[4-(methylsulfonyl)piperidin-1-yl]carbonyl}-2,3,4,5-tetrahydro-1,4-benzoxazepine] | 50 to 250 | 500 to 1000 |
| Cc1nc2ccc(-c3ccc4c(c3)CN(C(=O)N(Cc3ccccc3)C(C)C)CCO4)cc2[nH]1 [Compound 103, 7-(2-methyl-1H-benzimidazol-6-yl)-N-(1-methylethyl)-N-(phenylmethyl)-2,3-dihydro-1,4-benzoxazepine-4(5H)-carboxamide] | 50 to 250 | 1000 to 3000 |
| COC1CCN(C(=O)N2CCOc3ccc(-c4ccc5nc(C)[nH]c5c4)cc3C2)CC1 [Compound 105, 7-(2-methyl-1H-benzimidazol-6-yl)-4-{[4-(methyloxy)piperidin-1-yl]carbonyl}-2,3,4,5-tetrahydro-1,4-benzoxazepine] | 50 to 250 | 500 to 1000 |
| Cc1nc2ccc(-c3ccc4c(c3)CN(C(=O)N3CCCC(Cc5ccccc5)C3)CCO4)cc2[nH]1 (centres unmarked) [Compound 106, 7-(2-methyl-1H-benzimidazol-6-yl)-4-{[3-(phenylmethyl)piperidin-1-yl]carbonyl}-2,3,4,5-tetrahydro-1,4-benzoxazepine] | 250 to 700 | 1000 to 3000 |
| Cc1nc2ccc(-c3ccc4c(c3)CN(C(=O)N3CC5CCC3C5)CCO4)cc2[nH]1 (centres unmarked) [Compound 107, 4-(2-azabicyclo[2.2.1]hept-2-ylcarbonyl)-7-(2-methyl-1H-benzimidazol-6-yl)-2,3,4,5-tetrahydro-1,4-benzoxazepine] | 250 to 700 | 500 to 1000 |
| Cc1nc2ccc(-c3ccc4c(c3)CN(C(=O)N3CCCC(O)C3)CCO4)cc2[nH]1 (centres unmarked) [Compound 108, 1-{[7-(2-methyl-1H-benzimidazol-6-yl)-2,3-dihydro-1,4-benzoxazepin-4(5H)-yl]carbonyl}piperidin-3-ol] | 250 to 700 | 500 to 1000 |
| Cc1nc2ccc(-c3ccc4c(c3)CN(C(=O)N(C)[C@H](C)c3ccccc3)CCO4)cc2[nH]1 [Compound 109, N-methyl-7-(2-methyl-1H-benzimidazol-6-yl)-N-[(1R)-1-phenylethyl]-2,3-dihydro-1,4-benzoxazepine-4(5H)-carboxamide] | ≤ 50 | 75 to 200 |
| Cc1nc2ccc(-c3ccc4c(c3)CN(C(=O)N3CC5CN(c6ccccc6)CC5C3)CCO4)cc2[nH]1 (centres unmarked) [Compound 110, 7-(2-methyl-1H-benzimidazol-6-yl)-4-[(5-phenylhexahydropyrrolo[3,4-c]pyrrol-2(1H)-yl)carbonyl]-2,3,4,5-tetrahydro-1,4-benzoxazepine] | 250 to 700 | 200 to 500 |
| Cc1nc2ccc(-c3ccc4c(c3)CN(C(=O)N3CCC(=O)CC3c3ccccc3)CCO4)cc2[nH]1 (centres unmarked) [Compound 111, 1-{[7-(2-methyl-1H-benzimidazol-6-yl)-2,3-dihydro-1,4-benzoxazepin-4(5H)-yl]carbonyl}-2-phenylpiperidin-4-one] | ≤ 50 | 75 to 200 |
| Cc1nc2ccc(-c3ccc4c(c3)CN(C(=O)N3CCc5ccccc5C3)CCO4)cc2[nH]1 [Compound 113, 4-(3,4-dihydroisoquinolin-2(1H)-ylcarbonyl)-7-(2-methyl-1H-benzimidazol-6-yl)-2,3,4,5-tetrahydro-1,4-benzoxazepine] | 50 to 250 | 500 to 1000 |
| Cc1nc2ccc(-c3ccc4c(c3)CN(C(=O)N3CCCCC3c3ccc(F)c(F)c3)CCO4)cc2[nH]1 (centres unmarked) [Compound 114, 4-{[2-(3,4-difluorophenyl)piperidin-1-yl]carbonyl}-7-(2-methyl-1H-benzimidazol-6-yl)-2,3,4,5-tetrahydro-1,4-benzoxazepine] | ≤ 50 | ≤ 75 |
| Cc1nc2ccc(-c3ccc4c(c3)CN(C(=O)N3CCCCC3c3cc(F)cc(Cl)c3)CCO4)cc2[nH]1 (centres unmarked) [Compound 116, 4-{[2-(3-chloro-5-fluorophenyl)piperidin-1-yl]carbonyl}-7-(2-methyl-1H-benzimidazol-6-yl)-2,3,4,5-tetrahydro-1,4-benzoxazepine] | ≤ 50 | 75 to 200 |
| Cc1nc2ccc(-c3ccc4c(c3)CN(C(=O)N3CCCCC3c3ccc(F)c(C)c3)CCO4)cc2[nH]1 (centres unmarked) [Compound 118, 4-{[2-(4-fluoro-3-methylphenyl)piperidin-1-yl]carbonyl}-7-(2-methyl-1H-benzimidazol-6-yl)-2,3,4,5-tetrahydro-1,4-benzoxazepine] | ≤ 50 | 75 to 200 |
| Cc1nc2ccc(-c3ccc4c(c3)CN(C(=O)N3CCCCC3c3ccc(C(F)(F)F)cc3)CCO4)cc2[nH]1 (centres unmarked) [Compound 120, 7-(2-methyl-1H-benzimidazol-6-yl)-4-({2-[4-(trifluoromethyl)phenyl]piperidin-1-yl}carbonyl)-2,3,4,5-tetrahydro-1,4-benzoxazepine] | ≤ 50 | 200 to 500 |
| Cc1nc2ccc(-c3ccc4c(c3)CN(C(=O)N3CCC(=O)CC3c3ccc(F)c(F)c3)CCO4)cc2[nH]1 (centres unmarked) [Compound 121, 2-(3,4-difluorophenyl)-1-{[7-(2-methyl-1H-benzimidazol-6-yl)-2,3-dihydro-1,4-benzoxazepin-4(5H)-yl]carbonyl}piperidin-4-one] | 50 to 250 | 75 to 200 |
| Cc1nc2ccc(-c3ccc4c(c3)CN(C(=O)N3CCCCCC3c3ccccc3)CCO4)cc2[nH]1 (centres unmarked) [Compound 122, 7-(2-methyl-1H-benzimidazol-5-yl)-4-[(2-phenylazepan-1-yl)carbonyl]-2,3,4,5-tetrahydro-1,4-benzoxazepine] | 250 to 700 | 500 to 1000 |
| Cc1nc2ccc(-c3ccc4c(c3)CN(C(=O)N3CCCCC3c3ccc(C)c(F)c3)CCO4)cc2[nH]1 (centres unmarked) [Compound 123, 4-{[2-(3-fluoro-4-methylphenyl)piperidin-1-yl]carbonyl}-7-(2-methyl-1H-benzimidazol-6-yl)-2,3,4,5-tetrahydro-1,4-benzoxazepine] | ≤ 50 | 75 to 200 |
| Cc1nc2ccc(-c3ccc4c(c3)CN(C(=O)N3CCCCC3c3cccc(Cl)c3)CCO4)cc2[nH]1 (centres unmarked) [Compound 124, 4-{[2-(3-chlorophenyl)piperidin-1-yl]carbonyl}-7-(2-methyl-1H-benzimidazol-6-yl)-2,3,4,5-tetrahydro-1,4-benzoxazepine] | ≤ 50 | 75 to 200 |
| Cc1nc2ccc(-c3ccc4c(c3)CN(C(=O)N3CCC(=O)CC3c3cccc(F)c3)CCO4)cc2[nH]1 (centres unmarked) [Compound 125, 2-(3-fluorophenyl)-1-{[7-(2-methyl-1H-benzimidazol-6-yl)-2,3-dihydro-1,4-benzoxazepin-4(5H)-yl]carbonyl}piperidin-4-one] | ≤ 50 | 75 to 200 |
| Cc1nc2ccc(-c3ccc4c(c3)CN(C(=O)N3CCCCC3c3cccc(C(F)(F)F)c3)CCO4)cc2[nH]1 (centres unmarked) [Compound 127, 7-(2-methyl-1H-benzimidazol-6-yl)-4-({2-[3-(trifluoromethyl)phenyl]piperidin-1-yl}carbonyl)-2,3,4,5-tetrahydro-1,4-benzoxazepine] | 250 to 700 | 200 to 500 |

Reference: patent US8637499B2, “Benzoxazepines as inhibitors of PI3K/mTOR and methods of their use and manufacture” (Exelixis, Inc., priority 2009, dated 2014)
